Assay: GHS categories as the set defines them, by LD50: 1 up to 5, 2 up to 50, 3 up to 300, 4 up to 2000, 5 above 2000 mg/kg
Conditions: rat; in vivo; po
From the text: […]The data set underlying the modeling effort for this project was initially compiled by NICEATM and U.S. EPA’s CCTE. Briefly, LD50 data were collected from rat acute oral systemic toxicity tests, including limit tests, ranges/confidence intervals, and discrete LD50 values. The full data set included 21,200 LD50 entries for 15,688 substances. […] Data were reviewed to ensure that LD50 values with obvious errors in the extracted data such as unit conversion errors (e.g., comma and decimal separator misplacements) were either fixed or removed. After this review, 16,209 LD50 values remained. Many of the chemicals represented had multiple LD50 entries, requiring that a single representative value per Chemical Abstracts Service Registry Number (CASRN) identifier be defined to facilitate modeling efforts. Based on ATWG feedback and to define the representative LD50 as a protective value while accounting for the distribution across multiple LD50s, the median of the lowest quartile was computed using only discrete LD50 values (omitting limit test data and range and confidence interval data). A detailed summary of the data compilation is available online on the NICEATM webpage dedicated to the collaborative modeling project (NTP 2020).
[…][…] For categorical designations, limit test and range/confidence interval LD50 data were integrated wherever possible. As such, the number of chemicals with end point values/calls varies across the modeling end points (Table 3) based on whether chemicals had representative LD50 values and/or other data. If a chemical had both, the representative value was used to determine categorical calls rather than limit test data. Some data were useable only for certain end points and categories depending on the thresholds. For example, ranges that spanned multiple hazard categories were considered only for the binary (very toxic/nontoxic) end points and omitted from rendering a determination for hazard category assignment.
[…]The final data set comprising 11,992 chemicals was split into training and evaluation sets […], respectively. This process was performed semirandomly by ordering chemicals based on the five end points (categorical and continuous LD50 values) and partitioning every fourth record into the evaluation set accordingly. This approach was taken to ensure an equivalent distribution of the LD50 values and the different hazard categories between the training and the evaluation sets without supervised sampling of the chemicals based on structures (Figure 1A). The sources of the chemical structures were also kept equivalent between the two sets, with chemical structures obtained from DSSTox, being the highest quality, representing over 75% of each set (Figure 1B).

SMILES	GHS category
CCCCC(CC)COC(=O)c1ccccc1O (stereo not drawn)	5
Clc1cc(Cl)c2oc(C3(Cn4ccnc4)OCCCO3)cc2c1	4
CC(C)CC(C)(C)C	5
NC(=O)Oc1ccccc1C(=O)Oc1ccc(Cl)cc1Cl	5
CC1CC(OC(=O)COc2ccc(I)cc2)CC(C)(C)C1 (stereo not drawn)	5
CCCCCCC(C)O (stereo not drawn)	5
CC(C)Cc1ccc2cc(CC(=O)O)ccc2c1	4
Clc1ccc(CNC2=NCCS2)cc1	3
COc1ccccc1N1CCN(/C(N)=N/c2cc(Cl)cc(Cl)c2)CC1	4
CCC=CCC=O	5
OC1CCC(N2CCCCC2)CC1 (stereo not drawn)	5
NC1=NCC2c3ccccc3Cc3ccccc3N12 (stereo not drawn)	4
CC(=O)C(C)O (stereo not drawn)	5
O=S1OCC(CCl)O1 (stereo not drawn)	2
ICC1CCC(CI)CC1 (stereo not drawn)	5
Cc1ccc(NC(=O)N(C)C)cc1NC(=O)N(C)C	5
CC1=CC[C@H](CC=O)C1(C)C	5
CC(=O)CC(=O)Nc1cc(C)c(NC(=O)CC(C)=O)cc1C	5
O=C1OC(CN2CCOCC2)CC12CC(CN1CCOCC1)OC2=O (stereo not drawn)	5
CCOc1ccc(OC(=O)c2ccccc2OC(N)=O)cc1	5
CCOC(=O)/C=C(C)/C=C/CC(C)CCCC(C)C (stereo not drawn)	5
O=C(Nc1ccc(NC(=O)c2cc3ccccc3c(N=Nc3ccc(Cl)cc3[N+](=O)[O-])c2O)c(Cl)c1)c1cc2ccccc2c(N=Nc2ccc(Cl)cc2[N+](=O)[O-])c1O	5
C=CC(C)(CCC=C(C)C)OC(=O)C(C)C (stereo not drawn)	5
CO[C@H]1C=CO[C@@]2(C)Oc3c(C)c(O)c4c(O)c(c(/C=N/N5CCN(C6CCCC6)CC5)c(O)c4c3C2=O)NC(=O)C(C)=CC=C[C@H](C)[C@H](O)[C@@H](C)[C@@H](O)[C@@H](C)[C@H](OC(C)=O)[C@@H]1C	5
CCCN(C=Nc1cccc(=O)[nH]1)CCC	5
Nc1ccc(S(=O)(=O)Nc2ncccn2)cc1	5
O=C(OCCOCCO)c1cc(O)ccc1Nc1ccc(O)c(C(F)(F)F)c1	4

SMILES	GHS category
C[Si](C)(C)[Si](C)(C)C	5
COc1ccc(C=C(C(=O)Nc2ccccc2C(=O)O)C(=O)Nc2ccccc2C(=O)O)cc1OC	5
NCCNS(=O)(=O)c1cccc2cnccc12	4
Nc1nc(-c2ccc3ccccc3c2)cs1	5
Brc1ccc(N/C(=N/C2CCCCC2)c2ccccc2)cc1	5
COC[C@H]1CO[C@@](Cn2ccnc2)(c2cc3cc(Cl)cc(Cl)c3o2)O1	4
NC(=S)NS(=O)(=O)c1ccc(N)cc1	5
CCO[Si](CC(C)CC(C)(C)C)(OCC)OCC (stereo not drawn)	5
C=CCCCCCCCCC(OCC=C(C)CCC=C(C)C)OCC=C(C)CCC=C(C)C (stereo not drawn)	5
CCC(=O)NP(=O)(OC)SC (stereo not drawn)	4
COC1(NC(=O)C2SC(=C(C(N)=O)C(=O)O)S2)C(=O)N2C(C(=O)O)=C(CSc3nnnn3C)CSC21 (stereo not drawn)	5
Cc1cccc(N(C)C(=S)Oc2ccc3ccccc3c2)c1	5
COCCNC(=O)c1ccnc(C(=O)NCCOC)c1	5
C=COCCOCCOCCOC=C	5
COC(=O)[C@H]1CCCO1	5
O=C(O)CNC(c1ccccc1)c1ccccc1	4
O=C(Nc1ccc2[nH]c(=O)[nH]c2c1)c1cc2ccccc2c(N=Nc2cc(Cl)ccc2Cl)c1O	5
CCCCOC(=O)C(C)C	5
Cc1cc(O)cc(C)c1S(C)(=O)=O	4
Nc1cc(C(=O)NCC(O)CO)cc(C(=O)NCC(O)CO)c1 (stereo not drawn)	5
O=[N+]([O-])c1cc2c(Nc3ccc(F)c(Cl)c3)ncnc2cc1S(=O)(=O)c1ccccc1	5
C[C@H]1CCCC(=O)CCCC=Cc2cc(O)cc(O)c2C(=O)O1	5
CCCC1CCOC(C)S1 (stereo not drawn)	5
CC(=O)OC1CC(C)CCC1C(C)C (stereo not drawn)	5
CCCCC1C=C(C)CC(C)O1 (stereo not drawn)	5
Cc1ccc(S(=O)(=O)NC(=O)Nc2cccc(OS(=O)(=O)c3ccc(C)cc3)c2)cc1	5

From the CATMoS acute toxicity set (Mansouri et al. 2021)
